# Target: Shaker K+ channel (Shaker B) (Drosophila melanogaster, UniProt P08510, DEL6-46/F425G/K253C/T449F)
# Test: two-electrode voltage clamp in Xenopus oocytes
# Type: cell-based
structure (smiles),measurement,value
CC[N+](CC)(CC)CC [TEA],Kd,200 µM

# Reference: publication PMC2234460 (The Journal of General Physiology, 2002)
